{"source": "patent US20090294381A1", "about": "“METHODS FOR CONTROLLING PH IN WATER SANITIZED BY CHEMICAL OR ELECTROLYTIC CHLORINATION” (ZODIAC POOL CARE, INC., priority 2005, published 2009)", "key": {"[1]": {"conditions": "cited from earlier work"}, "Chlorella vulgaris": {"test_system": "Chlorella vulgaris", "experiment": "Algae growth in nutrient medium, serial dilution tubes, visual bottom pellicle formation", "format": "cell-based", "design": "key: +++ indicates good growth; ++ indicates scant growth; + indicates very low growth; − indicates no growth", "description": "An algae nutrient medium was prepared by mixing the following with 940 mL deionized (DI) water:\nPrimary stocks were made by including each of the test compounds in the table below in DI as 100 mL aliquots of 1000 ppm solutions. Working stocks in algae media were made as 128 ppm solutions (13 mL/100 mL DI). These solutions were serially diluted and placed into disposable borosilicate tubes, each containing 5 mL of algae medium. The highest theoretical concentration of each compound tested was 64 ppm; as a result of the serial dilution, concentrations of 32, 16, 8, 4, 2, 1, 0.5, and 0.25 ppm were tested. Each tube as inoculated with 50 μL of 10-12 day old Chlorella vulgaris, having an approximate density of 3.0×10^5 cells/mL. Growth was evaluated in a semi-quantitative fashion by visually observing bottom pellicle formation, which was compared to 2 controls. In the table below, +++ indicates good growth, ++ indicates scant growth, + indicates very low growth, and − indicates no growth."}, "[2]": {"experiment": "Phosphate removal and turbidity in 250 gallon mini-pool", "description": "A 250 gallon mini-pool was filled with tap water and balanced with calcium chloride, sodium bicarbonate, sodium bisulfate, and sodium hypochlorite. Sufficient sodium phosphate was added to the pool to give a phosphate concentration of approximately 1.0 ppm (calculated as ortho-phosphate). While mixing, lanthanum chloride was added to the water, where it combined with the phosphate and caused formation of a precipitate. The amount of lanthanum chloride added was sufficient to reduce phosphate concentration to less than 100 ppb. The water was allowed to mix (via stirring) for 15 minutes. […] Samples were taken at intervals during the study, and analyzed for turbidity, phosphate level, and lanthanum level, and in some cases, for pH and total alkalinity. […]\nA 250 gallon mini-pool was filled with tap water and balanced with calcium chloride, sodium bicarbonate, sodium bisulfate, and sodium hypochlorite. Sufficient sodium phosphate was added to the pool to give a phosphate concentration of approximately 1.0 ppm (calculated as ortho-phosphate). […] Samples were taken at intervals during the study, and analyzed for turbidity, phosphate level, and zinc level, and in some cases, for pH and total alkalinity. […]"}, "[3]": {"experiment": "Phosphate removal in full sized swimming pools via Nature2 G cartridge", "conditions": "Example 6: 7 pools, 15,000 to 27,000 gallons, about 1.0 ppm phosphate, 900 grams per cartridge", "from_the_text": "Sufficient sodium phosphate was broadcast to water in 7 full sized swimming pools, ranging in size from 15,000 to 27,000 gallons, to give a phosphate concentration of about 1.0 ppm (calculated as ortho-phosphate). The pools were allowed to mix for at least one hour. A Nature^2 G sized cartridge containing 900 grams of lanthanum chloride was connected to each pool water circulation system, and pumping through the cartridge was initiated, delivering lanthanum to the water. Water samples were taken at intervals and analyzed to determine turbidity, phosphate levels, and lanthanum levels, and in some cases, pH and total alkalinity. Six of the pools had surface cleaners in constant use and the remaining pool used a pool service. Each of the pools was filtered using a pleated cartridge filter. Turbidity of 6 of the 7 pools returned to starting levels (before lanthanum was added to precipitate out the phosphate) after 48 hours. A minimum of 90% of phosphate was removed from each of the pools."}}, "note": "Like-named read-outs stand apart in the source and are kept apart here.", "data": [{"compound": "[OH][Al]([OH])[OH]", "note": "[Al(OH)3]", "values": [{"measurement": "log Ksp", "setting": "[1]; metal hydroxides", "result": "−32.7"}]}, {"compound": "O=P([O-])([O-])[O-].[Al+3]", "note": "[AlPO4]", "values": [{"measurement": "log Ksp", "setting": "[1]; metal phosphates", "result": "−20.0"}]}, {"compound": "[Ce+3].[OH-].[OH-].[OH-]", "note": "[Ce(OH)3]", "values": [{"measurement": "log Ksp", "setting": "[1]; metal hydroxides", "result": "−22.3"}]}, {"compound": "[Ce+4].[OH-].[OH-].[OH-].[OH-]", "note": "[Ce(OH)4]", "values": [{"measurement": "log Ksp", "setting": "[1]; metal hydroxides", "result": "−47.7"}]}, {"compound": "O=P([O-])([O-])[O-].[Ce+3]", "note": "[CePO4]", "values": [{"measurement": "log Ksp", "setting": "[1]; metal phosphates", "result": "−26.2"}]}, {"compound": "O=P([O-])([O-])[O-].O=P([O-])([O-])[O-].[Cu+2].[Cu+2].[Cu+2]", "note": "[Cu3(PO4)2]", "values": [{"measurement": "log Ksp", "setting": "[1]; metal phosphates", "result": "−36.9"}]}, {"compound": "[Cu+2].[OH-].[OH-]", "note": "[Cu(OH)2]", "values": [{"measurement": "log Ksp", "setting": "[1]; metal hydroxides", "result": "−19.3"}]}, {"compound": "O=S(=O)([O-])[O-].[Cu+2]", "note": "[CuSO4]", "values": [{"measurement": "Growth of Chlorella vulgaris (bottom pellicle formation)", "setting": "Chlorella vulgaris; 0.25 ppm test compound", "result": "++"}, {"measurement": "Growth of Chlorella vulgaris (bottom pellicle formation)", "setting": "Chlorella vulgaris; 0.5 ppm test compound", "result": "++"}, {"measurement": "Growth of Chlorella vulgaris (bottom pellicle formation)", "setting": "Chlorella vulgaris; 1 ppm test compound", "result": "+"}, {"measurement": "Growth of Chlorella vulgaris (bottom pellicle formation)", "setting": "Chlorella vulgaris; 2 ppm test compound", "result": "−"}, {"measurement": "Growth of Chlorella vulgaris (bottom pellicle formation)", "setting": "Chlorella vulgaris; 4 ppm test compound", "result": "−"}, {"measurement": "Growth of Chlorella vulgaris (bottom pellicle formation)", "setting": "Chlorella vulgaris; 8 ppm test compound", "result": "−"}, {"measurement": "Growth of Chlorella vulgaris (bottom pellicle formation)", "setting": "Chlorella vulgaris; 16 ppm test compound", "result": "−"}, {"measurement": "Growth of Chlorella vulgaris (bottom pellicle formation)", "setting": "Chlorella vulgaris; 32 ppm test compound", "result": "−"}, {"measurement": "Growth of Chlorella vulgaris (bottom pellicle formation)", "setting": "Chlorella vulgaris; 64 ppm test compound", "result": "−"}]}, {"compound": "CCCCCCCCCCCCN.Cl", "note": "[Dodecylamine HCl]", "values": [{"measurement": "Growth of Chlorella vulgaris (bottom pellicle formation)", "setting": "Chlorella vulgaris; 0.25 ppm test compound", "result": "−"}, {"measurement": "Growth of Chlorella vulgaris (bottom pellicle formation)", "setting": "Chlorella vulgaris; 0.5 ppm test compound", "result": "−"}, {"measurement": "Growth of Chlorella vulgaris (bottom pellicle formation)", "setting": "Chlorella vulgaris; 1 ppm test compound", "result": "−"}, {"measurement": "Growth of Chlorella vulgaris (bottom pellicle formation)", "setting": "Chlorella vulgaris; 2 ppm test compound", "result": "−"}, {"measurement": "Growth of Chlorella vulgaris (bottom pellicle formation)", "setting": "Chlorella vulgaris; 4 ppm test compound", "result": "−"}, {"measurement": "Growth of Chlorella vulgaris (bottom pellicle formation)", "setting": "Chlorella vulgaris; 8 ppm test compound", "result": "−"}, {"measurement": "Growth of Chlorella vulgaris (bottom pellicle formation)", "setting": "Chlorella vulgaris; 16 ppm test compound", "result": "−"}, {"measurement": "Growth of Chlorella vulgaris (bottom pellicle formation)", "setting": "Chlorella vulgaris; 32 ppm test compound", "result": "−"}, {"measurement": "Growth of Chlorella vulgaris (bottom pellicle formation)", "setting": "Chlorella vulgaris; 64 ppm test compound", "result": "−"}]}, {"compound": "[La+3].[OH-].[OH-].[OH-]", "note": "[La(OH)3]", "values": [{"measurement": "log Ksp", "setting": "[1]; metal hydroxides", "result": "−18.5"}]}, {"compound": "O=P([O-])([O-])[O-].[La+3]", "note": "[LaPO4]", "values": [{"measurement": "log Ksp", "setting": "[1]; metal phosphates", "result": "−25.7"}]}, {"compound": "[OH][Sn][OH]", "note": "[Sn(OH)2]", "values": [{"measurement": "log Ksp", "setting": "[1]; metal hydroxides", "result": "−26.5"}]}, {"compound": "O=P([O-])([O-])[O-].O=P([O-])([O-])[O-].[Zn+2].[Zn+2].[Zn+2]", "note": "[Zn3(PO4)2]", "values": [{"measurement": "log Ksp", "setting": "[1]; metal phosphates", "result": "−35.3"}]}, {"compound": "[OH-].[OH-].[Zn+2]", "note": "[Zn(OH)2]", "values": [{"measurement": "log Ksp", "setting": "[1]; metal hydroxides", "result": "−16.5"}]}, {"compound": "[Cl][La]([Cl])[Cl]", "note": "[lanthanum chloride]", "values": [{"measurement": "Turbidity reduction", "setting": "[2]; Example 5: within two hours of beginning filtration (diatomaceous earth)", "result": 97, "unit": "%"}, {"measurement": "phosphate removed", "setting": "[3]", "result": "≥ 90", "unit": "%"}]}, {"compound": "[Cl-].[Cl-].[Zn+2]", "note": "[zinc chloride]", "values": [{"measurement": "phosphate reduction", "setting": "[2]; Example 7: start approx. 1.0 ppm phosphate, within 3 hours, sand filtration", "result": "more than 90%"}]}, {"compound": "Zinc borate", "values": [{"measurement": "Growth of Chlorella vulgaris (bottom pellicle formation)", "setting": "Chlorella vulgaris; 0.25 ppm test compound", "result": "+"}, {"measurement": "Growth of Chlorella vulgaris (bottom pellicle formation)", "setting": "Chlorella vulgaris; 0.5 ppm test compound", "result": "+"}, {"measurement": "Growth of Chlorella vulgaris (bottom pellicle formation)", "setting": "Chlorella vulgaris; 1 ppm test compound", "result": "−"}, {"measurement": "Growth of Chlorella vulgaris (bottom pellicle formation)", "setting": "Chlorella vulgaris; 2 ppm test compound", "result": "−"}, {"measurement": "Growth of Chlorella vulgaris (bottom pellicle formation)", "setting": "Chlorella vulgaris; 4 ppm test compound", "result": "−"}, {"measurement": "Growth of Chlorella vulgaris (bottom pellicle formation)", "setting": "Chlorella vulgaris; 8 ppm test compound", "result": "−"}, {"measurement": "Growth of Chlorella vulgaris (bottom pellicle formation)", "setting": "Chlorella vulgaris; 16 ppm test compound", "result": "−"}, {"measurement": "Growth of Chlorella vulgaris (bottom pellicle formation)", "setting": "Chlorella vulgaris; 32 ppm test compound", "result": "−"}, {"measurement": "Growth of Chlorella vulgaris (bottom pellicle formation)", "setting": "Chlorella vulgaris; 64 ppm test compound", "result": "−"}]}]}
